Structures are written as SMILES. Counter-ions that a name gives are not always drawn.

Among the data in PMC6161288, “Bioavailability of Eurycomanone in Its Pure Form and in a Standardised Eurycoma longifolia Water Extract” (Pharmaceutics, 2018) are logD, efflux ratio and Aqueous solubility values, retold here.

Data set [1] in a line: Lipophilicity, shake flask method with octanol and buffer (pH 7.4). It counts as physicochemical. The following applies: pH 7.4. As for the experimental part:
The lipophilicity of eurycomanone was estimated using the shake flask method with octanol and buffer (pH 7.4). Eurycomanone (5 µL) at 5 mM concentration is added to octanol (495 µL) and DMSO (495 µL) and also into the aqueous and octanol phase in a 1:1 ratio ([…] of octanol phase and 247.5 µL of aqueous phase). The octanol and aqueous phases were prepared using a saturation process, where equal amounts of D-PBS (pH 7.4) and octanol were saturated (300 rpm, room temperature) for 24 h before being separated and kept at room temperature. The prepared mixtures were vortexed and kept on the shaker (300 rpm) at room temperature for 16 h. The mixtures were allowed to stand for 30 min, and 200 µL of solution was transferred and sent for HPLC analysis.

Data set [2] can be described thus: Caco-2 cell permeability assay. The following applies: human, Caco-2, Efflux Ratio. It counts as in vitro ADME. As for the experimental part:
The Caco-2 assay was carried out after seeding the cells onto the membrane to form a confluent monolayer in 21 days. The media is removed from apical (A) and basolateral (B) chambers and the membrane is washed with HBSS buffer. Eurycomanone (10 µM, 200 µL) was added to the A compartment (which represents the intestinal lumen), and buffer (300 µL) was added to the B compartment (representing the blood), and vice versa. The plate was kept in a shaking incubator (37 °C) for 1 h. The amount of eurycomanone that had permeated across the cells was measured by LC-MS/MS, and the apparent permeability (Papp) values and efflux ratio were calculated. The expression of P-glycoprotein (P-gp) by differentiated Caco-2 cells was confirmed by measuring the Papp value and efflux ratio of vinblastine with and without the presence of a competing P-gp substrate, cyclosporine A. Eurycomanone was also measured with the presence of cyclosporine A to investigate whether eurycomanone may be transported via P-gp transporters.
On the technique in general: Passage across Caco-2 layers is used to estimate intestinal permeability.

A short description of data set [3]: Aqueous solubility. The data set is classed as physicochemical. As for the experimental part: The aqueous […] was estimated by adding 10 µL of eurycomanone stock solution (10 mM) to 490 µL of aqueous buffer at pH 5.4, pH 7.4 and DMSO in triplicates in deep-well plates. […] The plate was kept on a shaker (300 rpm) at room temperature for 16 h. The plate was then centrifuged at 25 °C, 4000 rpm for 25 min. The supernatant was transferred and analysed using LC-MS/MS.
Peak area 1 = peak area of the compound in 2% DMSO at the different pH levels.
Peak area 2 = peak area of the compound in 100% DMSO.

What is called logD is the decadic logarithm of the distribution of all forms, ionised or not, between an organic phase and buffer at a given pH. Low values mean a more hydrophilic compound, high ones a more lipophilic compound. Consider `COCCc1ccc(OCC(O)CNC(C)C)cc1` (stereo not drawn) [metoprolol, metoprolol tartrate], for which the logD at 16 h in data set [1] was -0.29.
A word on the efflux ratio: it is the permeability from basolateral to apical divided by that in the opposite direction, in the common usage. Turning to `CC[C@]1(O)C[C@@H]2CN(CCc3c([nH]c4ccccc34)[C@@](C(=O)OC)(c3cc4c(cc3OC)N(C)[C@H]3[C@@](O)(C(=O)OC)[C@H](OC(C)=O)[C@]5(CC)C=CCN6CC[C@]43[C@@H]65)C2)C1` [Vinblastine, vinblastine, reference compound], in data set [2], the efflux ratio at 1 h, 10 µM worked out at 14.7.
In data set [1], `CC/C(=C(/CC)c1ccc(O)cc1)c1ccc(O)cc1` [diethylstilbestrol] gave a logD at 16 h of 3.18.
For the molecule `C[C@]12CC[C@@H]3c4ccc(O)cc4CC[C@H]3[C@@H]1C[C@@H](O)[C@@H]2O` [Estriol, estriol, reference compound], the logD at 16 h in data set [1] came out at 2.82. The Aqueous solubility entry in data set [3] (pH 5.4) and in data set [3] (pH 7.4) was “moderate solubility” throughout.
